Laboratory results: ChEMBL document CHEMBL1201862, “PubChem BioAssay data set” (2004)
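48-hour exposure; five concentrations; linearly interpolated endpoints. GI50 marks 50% less growth.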 Activity calls are given as the source filed them. No stated cut-off is given here; in the data, active = GI50 up to about 1.1 µM and inactive = higher.

Assays:
Test in all cases: NCI anticancer screen, dose series, 48 h
786-0 = system: 786-0
A498 = system: A498
ACHN = system: ACHN
BT-549 = system: BT-549
CAKI-1 = system: CAKI-1
CCRF-CEM = system: CCRF-CEM
COLO 205 = system: COLO 205
EKVX = system: EKVX
HOP-92 = system: HOP-92
HT-29 = system: HT-29
LOX IMVI = system: LOX IMVI
MCF7 = system: MCF7
MDA-MB-231 = system: MDA-MB-231
MOLT-4 = system: MOLT-4
OVCAR-4 = system: OVCAR-4
SF-295 = system: SF-295
SK-MEL-28 = system: SK-MEL-28
SNB-75 = system: SNB-75
T47D = system: T47D
TK-10 = system: TK-10

Compound | GI50 (786-0) | GI50 (A498) | GI50 (ACHN) | GI50 (BT-549) | GI50 (CAKI-1) | GI50 (CCRF-CEM) | GI50 (COLO 205) | GI50 (EKVX) | GI50 (HOP-92) | GI50 (HT-29) | GI50 (LOX IMVI) | GI50 (MCF7) | GI50 (MDA-MB-231) | GI50 (MOLT-4) | GI50 (OVCAR-4) | GI50 (SF-295) | GI50 (SK-MEL-28) | GI50 (SNB-75) | GI50 (T47D) | GI50 (TK-10)
O=C1CCSc2nc(-c3ccc4c(c3)OCO4)nn21 | > 10 µM (inactive) | > 10 µM (inactive) | > 10 µM (inactive) | > 10 µM (inactive) | > 10 µM (inactive) | > 10 µM (inactive) | > 10 µM (inactive) | > 10 µM (inactive) | > 10 µM (inactive) | > 10 µM (inactive) | > 10 µM (inactive) | > 10 µM (inactive) | > 10 µM (inactive) | > 10 µM (inactive) | > 10 µM (inactive) | > 10 µM (inactive) | > 10 µM (inactive) | > 10 µM (inactive) | > 10 µM (inactive) | > 10 µM (inactive)
C=C1C[C@@H]2O[C@H]3[C@H]4[C@@H](C[C@@H](C)[C@@H](OC(C)=O)[C@H]42)[C@@H](C)CO[C@@]3(C)[C@H](OC(C)=O)C[C@H]1O | > 100 µM (inactive) | > 100 µM (inactive) | > 100 µM (inactive) | 63.4 µM (inactive) | > 100 µM (inactive) | 25.9 µM (inactive) | 88.1 µM (inactive) | > 100 µM (inactive) | 66.8 µM (inactive) | 63.2 µM (inactive) | 17.1 µM (inactive) | 84.5 µM (inactive) | > 100 µM (inactive) | 53 µM (inactive) | > 100 µM (inactive) | > 100 µM (inactive) | > 100 µM (inactive) | 84.3 µM (inactive) | > 100 µM (inactive) | > 100 µM (inactive)
CCCC(=O)Nc1cn(COC)c(C(=O)N2C[C@@H]3C[C@]34C2=CC(=O)c2[nH]cc(C)c24)n1 | 5.15 µM (inactive) | 9.48 µM (inactive) | 3.26 µM (inactive) | 7.74 µM (inactive) | 1.91 µM (inactive) | 1.27 µM (inactive) | 7.91 µM (inactive) | > 5 µM (inactive) | 9.31 µM (inactive) | 7.76 µM (inactive) | 6.31 µM (inactive) | 2.45 µM (inactive) | 8.47 µM (inactive) | 0.857 µM (active) | 7.82 µM (inactive) | 15.6 µM (inactive) | 14.5 µM (inactive) | 10.2 µM (inactive) | 4.85 µM (inactive) | 7.96 µM (inactive)
OCCCSCCO | > 100 µM (inactive) | > 100 µM (inactive) | > 100 µM (inactive) | > 100 µM (inactive) | > 100 µM (inactive) | > 100 µM (inactive) | > 100 µM (inactive) | > 100 µM (inactive) | > 100 µM (inactive) | > 100 µM (inactive) | > 100 µM (inactive) | > 100 µM (inactive) | > 100 µM (inactive) | > 100 µM (inactive) | > 100 µM (inactive) | > 100 µM (inactive) | > 100 µM (inactive) | > 100 µM (inactive) | > 100 µM (inactive) | > 100 µM (inactive)
COc1ccc(N2C(=O)C3c4[nH]c5ccc(C)cc5c4C4CCC(C(C)C)CC4C3C2=O)cc1 (stereo not given) | > 100 µM (inactive) | > 100 µM (inactive) | > 100 µM (inactive) | > 100 µM (inactive) | > 100 µM (inactive) | 0.995 µM (active) | > 100 µM (inactive) | > 100 µM (inactive) | > 100 µM (inactive) | > 100 µM (inactive) | > 100 µM (inactive) | > 100 µM (inactive) | > 100 µM (inactive) | > 100 µM (inactive) | > 100 µM (inactive) | > 100 µM (inactive) | > 100 µM (inactive) | 27.7 µM (inactive) | > 100 µM (inactive) | > 100 µM (inactive)
